From PubChem BioAssay (NCI)
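Step 1: Grow cells in 96-well plates. Step 2: Expose to compound for 48 hours at 5 concentrations. Step 3: Interpolate endpoints linearly; if unreached, use highest concentration. At the GI50, growth is halved. TGI: concentration producing complete growth inhibition.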

Tests used:
Test in all cases: NCI-60 cell line screen, 48 h
KM12 colon = tested on: KM12 colon
M14 melanoma = tested on: M14 melanoma
HCT-116 colon = tested on: HCT-116 colon
CCRF-CEM leukemia = tested on: CCRF-CEM leukemia
UO-31 renal = tested on: UO-31 renal
NCI-H522 lung = tested on: NCI-H522 lung
TK-10 renal = tested on: TK-10 renal
OVCAR-5 ovarian = tested on: OVCAR-5 ovarian
SR leukemia = tested on: SR leukemia
OVCAR-3 ovarian = tested on: OVCAR-3 ovarian

Row | Compound | GI50 (KM12 colon) | TGI (KM12 colon) | GI50 (M14 melanoma) | TGI (M14 melanoma) | GI50 (HCT-116 colon) | TGI (HCT-116 colon) | GI50 (CCRF-CEM leukemia) | TGI (CCRF-CEM leukemia) | GI50 (UO-31 renal) | TGI (UO-31 renal) | GI50 (NCI-H522 lung) | TGI (NCI-H522 lung) | GI50 (TK-10 renal) | TGI (TK-10 renal) | GI50 (OVCAR-5 ovarian) | TGI (OVCAR-5 ovarian) | GI50 (SR leukemia) | TGI (SR leukemia) | GI50 (OVCAR-3 ovarian) | TGI (OVCAR-3 ovarian)
1 | COC(=O)C1=C(O)C(C(=O)OC)[C@@]2(O)[C@@H](C(=O)OC)C(c3ccc(OC(=O)C(Cc4ccccc4)NC(C)=O)cc3)C[C@@H]1[C@@H]2C(=O)OC (some centres undefined) | 15.3 µM | 41.3 µM | 20.7 µM | 47.2 µM | 20.6 µM | 45.1 µM | 32.9 µM | > 100 µM | 35.7 µM | > 100 µM | 28.3 µM | > 100 µM | 18.5 µM | 44.1 µM | 35 µM | 97.3 µM | 3.35 µM | > 100 µM | – | –
2 | CC(=N\O)/C(C)=N/O.CC(=N\O)/C(C)=N/O.[Pd] | 2.79 µM | 8.01 µM | 3.04 µM | 8.55 µM | 2.38 µM | 4.79 µM | 2.04 µM | 6.13 µM | – | – | 2.08 µM | 5.03 µM | 4.57 µM | > 10 µM | 6.47 µM | > 10 µM | > 10 µM | > 10 µM | 3.83 µM | > 10 µM
3 | O=C1/C=C(/c2ccc(O)cc2)[C@H](O)Cc2ccc(OC3OC(CO)C(O)C(O)C3O)cc2O1 (some centres undefined) (tested in a mixture with another compound) | – | > 100 µM | – | > 100 µM | – | > 100 µM | – | – | – | > 100 µM | – | > 100 µM | – | > 100 µM | – | > 100 µM | – | – | – | > 100 µM
4 | COc1cc(C2CC(c3ccc(C)cc3)=NN2C(C)=O)ccc1Oc1ccnc2cc(Cl)ccc12 (centres undefined) | > 100 µM | > 100 µM | > 100 µM | > 100 µM | 0.681 µM | > 100 µM | > 100 µM | > 100 µM | – | – | > 100 µM | > 100 µM | – | – | > 100 µM | > 100 µM | > 100 µM | > 100 µM | > 100 µM | > 100 µM
5 | Clc1cc(Cl)c2n[se]nc2c1 | – | > 100 µM | – | > 100 µM | – | > 100 µM | – | > 100 µM | – | > 100 µM | – | > 100 µM | – | > 100 µM | – | > 100 µM | – | > 100 µM | – | –
6 | COc1ccc(-n2cc(-c3ccc(Cl)cc3)[nH]c2=S)cc1Cl | > 100 µM | > 100 µM | – | – | 47.2 µM | > 100 µM | 60.6 µM | > 100 µM | 19.1 µM | 47.8 µM | 59.4 µM | > 100 µM | 47.3 µM | > 100 µM | > 100 µM | > 100 µM | – | – | 31.8 µM | > 100 µM
7 | CC(=O)OCC1OC(n2c(-c3ccc(N)cc3)cc(-c3ccco3)c(C#N)c2=O)C(OC(C)=O)C(OC(C)=O)C1OC(C)=O (centres undefined) | – | > 50 µM | – | > 50 µM | – | > 50 µM | – | – | – | > 50 µM | – | > 50 µM | – | > 50 µM | – | > 50 µM | – | > 50 µM | – | > 50 µM
8 | C=CC[n+]1c(/C=C2\Sc3ccccc3N2C)sc(-c2ccccc2)c1-c1ccccc1 | 0.331 µM | 1.95 µM | 0.373 µM | 1.59 µM | 0.36 µM | 11.5 µM | 0.353 µM | 11.8 µM | 1.61 µM | 4.4 µM | 0.22 µM | 0.76 µM | 0.307 µM | 3.35 µM | 0.383 µM | 12.6 µM | 0.353 µM | 1.87 µM | – | –
9 | NNC(=S)N/N=C(\c1nc2ccc(Cl)cc2[nH]c1=O)C(O)c1ccc(Cl)cc1Cl (centres undefined) | – | > 100 µM | – | > 100 µM | – | > 100 µM | – | > 100 µM | – | > 100 µM | – | > 100 µM | – | > 100 µM | – | > 100 µM | – | > 100 µM | – | –
10 | Cc1ccc(NC(=O)C(=O)C2C(=O)C3=C(CC2(C)C)NC2C=CC=CC2S3)c(C)c1 (centres undefined) | – | > 100 µM | – | – | – | > 100 µM | – | > 100 µM | – | > 100 µM | – | > 100 µM | – | > 100 µM | – | – | – | – | – | –
11 | O=C(CC1Sc2ccccc2NC1=O)Nc1ccc([N+](=O)[O-])cc1[N+](=O)[O-] (centres undefined) | – | 59.5 µM | – | 31.2 µM | – | 29.8 µM | – | 39.6 µM | – | 25.1 µM | – | – | – | > 100 µM | – | 62.3 µM | – | – | – | 31.5 µM
12 | COC1=CC(=O)c2c(O)c3c(c(O)c2C1=O)CC(C)(O)OC3 (centres undefined) | – | > 35.8 µM | – | 4.53 µM | – | 10.6 µM | – | 17.4 µM | – | 15.2 µM | – | 7.24 µM | – | 34.4 µM | – | 14.6 µM | – | – | – | 7.08 µM
13 | COC(=O)c1ccc2c(c1)[n+](=O)c(C(C)=O)c(C(F)(F)F)n2[O-] | 1.76 µM | 3.19 µM | 1.75 µM | 3.2 µM | 1.45 µM | 2.76 µM | 4.62 µM | > 100 µM | 1.71 µM | 3.15 µM | 1.66 µM | 3.28 µM | 2.77 µM | 6.05 µM | 1.67 µM | 3.11 µM | – | – | 1.82 µM | 3.27 µM
14 | Cn1c(=O)c(C2c3ccccc3Oc3c2c(=O)n(C)c2ccccc32)c(O)c2ccccc21 (centres undefined) | – | > 100 µM | – | > 100 µM | – | > 100 µM | – | – | – | > 100 µM | – | 54.6 µM | – | 83.8 µM | – | > 100 µM | – | > 100 µM | – | > 100 µM
15 | O=c1c2ccccc2oc2nccnc12 | – | > 100 µM | – | > 100 µM | – | > 100 µM | – | > 100 µM | – | > 100 µM | – | – | – | > 100 µM | – | > 100 µM | – | – | – | > 100 µM
16 | O=C1C=Cc2cc3ccccc3c3cccc1c23 | 12.1 µM | 35.6 µM | 15.7 µM | > 100 µM | 3.16 µM | > 100 µM | 4.35 µM | 18.3 µM | 7.31 µM | > 100 µM | 8.6 µM | > 100 µM | 9.55 µM | 42.3 µM | 3.44 µM | 27.5 µM | – | – | 3.9 µM | 19 µM
17 | Cc1cc(C)cc(NC(=O)CCC(=O)C2CCC/C2=N\NC(=O)C(=O)NN)c1 (centres undefined) | – | > 100 µM | – | > 100 µM | – | > 100 µM | – | > 100 µM | – | > 100 µM | – | – | – | > 100 µM | – | > 100 µM | – | – | – | > 100 µM
18 | COC(=O)C(=O)C(C(=O)C(=O)Nc1ccc(Cl)cc1Cl)c1nc2ccc(Cl)cc2[nH]c1=O (centres undefined) | – | > 100 µM | – | > 100 µM | – | > 100 µM | – | > 100 µM | – | > 100 µM | – | > 100 µM | – | > 100 µM | – | > 100 µM | – | – | – | > 100 µM
